Source: PMC4490784, “Compensatory induction of MYC expression by sustained CDK9 inhibition via a BRD4-dependent mechanism” (eLife, 2015)

How the values were obtained:
Assay in all cases: KINOMEscan binding assay
[1] = biological target: T1, EPHA4 (Homo sapiens, UniProt P54764); details: read-out: % Retention on Solid Support
T1 construct: purchased DiscoveRx KINOMEscan
Summary of the method: (§1)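 Panel of >400 kinases screened by active-site competition binding, compound at 1 and 10 µM.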

[2] = biological target: T2, MAP3K2 (Homo sapiens, UniProt Q9Y2U5); details: read-out: % Retention on Solid Support
T2 construct: purchased DiscoveRx KINOMEscan
Summary of the method: as §1

[3] = biological target: T3, RSK1(Kin.Dom.2-C-terminal) (Homo sapiens, UniProt Q15418); details: read-out: % Retention on Solid Support
T3 construct: RSK1(Kin.Dom.2-C-terminal); purchased DiscoveRx KINOMEscan
Summary of the method: as §1

[4] = biological target: T4, NDR1 (Homo sapiens, UniProt Q15208); details: read-out: % Retention on Solid Support
T4 construct: purchased DiscoveRx KINOMEscan
Summary of the method: as §1

[5] = biological target: T5, NEK6 (Homo sapiens, UniProt Q9HC98); details: read-out: % Retention on Solid Support
T5 construct: purchased DiscoveRx KINOMEscan
Summary of the method: as §1

[6] = biological target: T6, p38-gamma (Homo sapiens, UniProt P53778); details: read-out: % Retention on Solid Support
T6 construct: purchased DiscoveRx KINOMEscan
T6 sequence (P53778 whole entry): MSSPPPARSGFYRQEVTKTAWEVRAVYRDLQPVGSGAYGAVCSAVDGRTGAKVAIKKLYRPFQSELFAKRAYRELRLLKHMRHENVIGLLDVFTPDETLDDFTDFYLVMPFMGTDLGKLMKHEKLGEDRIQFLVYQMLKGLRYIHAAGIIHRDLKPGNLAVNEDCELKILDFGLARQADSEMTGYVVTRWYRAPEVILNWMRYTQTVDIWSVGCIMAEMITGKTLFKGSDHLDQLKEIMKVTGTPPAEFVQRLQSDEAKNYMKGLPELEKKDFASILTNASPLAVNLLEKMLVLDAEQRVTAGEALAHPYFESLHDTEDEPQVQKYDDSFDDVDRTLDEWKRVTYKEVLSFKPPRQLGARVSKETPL
Summary of the method: as §1

[7] = biological target: T7, TESK1 (Homo sapiens, UniProt Q15569); details: read-out: % Retention on Solid Support
T7 construct: purchased DiscoveRx KINOMEscan
Summary of the method: as §1

[8] = biological target: T8, STK36 (Homo sapiens, UniProt Q9NRP7); details: read-out: % Retention on Solid Support
T8 construct: purchased DiscoveRx KINOMEscan
Summary of the method: as §1

[9] = biological target: T9, BRAF(V600E) (Homo sapiens, UniProt P15056, V600E); details: read-out: % Retention on Solid Support
T9 construct: purchased DiscoveRx KINOMEscan
Summary of the method: as §1

[10] = biological target: T10, CDK8 (Homo sapiens, UniProt P49336)
T10 construct: purchased DiscoveRx KINOMEscan
Summary of the method: as §1

[11] = biological target: T11, NEK9 (Homo sapiens, UniProt Q8TD19); details: read-out: % Retention on Solid Support
T11 construct: purchased DiscoveRx KINOMEscan
T11 sequence (Q8TD19 whole entry): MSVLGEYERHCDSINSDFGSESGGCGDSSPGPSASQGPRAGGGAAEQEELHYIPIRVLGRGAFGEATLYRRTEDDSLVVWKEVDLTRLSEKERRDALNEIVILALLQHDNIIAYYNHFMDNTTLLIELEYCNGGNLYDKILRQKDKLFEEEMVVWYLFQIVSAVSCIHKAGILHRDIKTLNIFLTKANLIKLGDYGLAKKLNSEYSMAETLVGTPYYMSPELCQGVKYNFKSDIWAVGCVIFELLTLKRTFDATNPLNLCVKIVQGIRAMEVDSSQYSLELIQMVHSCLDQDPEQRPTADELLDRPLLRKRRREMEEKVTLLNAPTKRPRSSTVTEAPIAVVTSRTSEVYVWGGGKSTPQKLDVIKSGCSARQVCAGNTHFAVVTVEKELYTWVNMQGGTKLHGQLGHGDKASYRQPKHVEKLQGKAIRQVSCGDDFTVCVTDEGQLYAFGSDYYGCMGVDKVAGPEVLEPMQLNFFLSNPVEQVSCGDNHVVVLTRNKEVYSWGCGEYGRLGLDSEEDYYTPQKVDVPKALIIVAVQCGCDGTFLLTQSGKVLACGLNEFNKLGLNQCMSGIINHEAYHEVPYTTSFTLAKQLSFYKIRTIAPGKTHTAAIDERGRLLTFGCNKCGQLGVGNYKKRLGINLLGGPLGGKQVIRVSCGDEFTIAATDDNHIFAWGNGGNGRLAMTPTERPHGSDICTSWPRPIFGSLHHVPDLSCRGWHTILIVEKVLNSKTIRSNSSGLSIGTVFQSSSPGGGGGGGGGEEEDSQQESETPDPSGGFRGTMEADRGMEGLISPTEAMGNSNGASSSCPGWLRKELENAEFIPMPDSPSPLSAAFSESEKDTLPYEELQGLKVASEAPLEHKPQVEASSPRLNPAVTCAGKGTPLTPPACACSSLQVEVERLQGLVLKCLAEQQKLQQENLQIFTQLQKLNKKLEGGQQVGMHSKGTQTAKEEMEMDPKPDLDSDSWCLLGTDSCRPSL
Summary of the method: as §1

[12] = biological target: T12, ERK5 (Homo sapiens, UniProt Q13164); details: read-out: % Retention on Solid Support
T12 construct: purchased DiscoveRx KINOMEscan
Summary of the method: as §1

[13] = biological target: T13, ABL1(H396P)-nonphosphorylated (Homo sapiens, UniProt P00519, H396P); details: read-out: % Retention on Solid Support
T13 construct: purchased DiscoveRx KINOMEscan
Summary of the method: as §1

[14] = biological target: T14, DCAMKL1 (Homo sapiens, UniProt O15075)
T14 construct: purchased DiscoveRx KINOMEscan
Summary of the method: as §1

[15] = biological target: T15, PAK1 (Homo sapiens, UniProt Q13153); details: read-out: % Retention on Solid Support
T15 construct: purchased DiscoveRx KINOMEscan
Summary of the method: as §1

[16] = biological target: T16, MAP4K3 (Homo sapiens, UniProt Q8IVH8)
T16 construct: purchased DiscoveRx KINOMEscan
Summary of the method: as §1

[17] = biological target: T17, RIOK2 (Homo sapiens, UniProt Q9BVS4); details: read-out: % Retention on Solid Support
T17 construct: purchased DiscoveRx KINOMEscan
T17 sequence (Q9BVS4 whole entry): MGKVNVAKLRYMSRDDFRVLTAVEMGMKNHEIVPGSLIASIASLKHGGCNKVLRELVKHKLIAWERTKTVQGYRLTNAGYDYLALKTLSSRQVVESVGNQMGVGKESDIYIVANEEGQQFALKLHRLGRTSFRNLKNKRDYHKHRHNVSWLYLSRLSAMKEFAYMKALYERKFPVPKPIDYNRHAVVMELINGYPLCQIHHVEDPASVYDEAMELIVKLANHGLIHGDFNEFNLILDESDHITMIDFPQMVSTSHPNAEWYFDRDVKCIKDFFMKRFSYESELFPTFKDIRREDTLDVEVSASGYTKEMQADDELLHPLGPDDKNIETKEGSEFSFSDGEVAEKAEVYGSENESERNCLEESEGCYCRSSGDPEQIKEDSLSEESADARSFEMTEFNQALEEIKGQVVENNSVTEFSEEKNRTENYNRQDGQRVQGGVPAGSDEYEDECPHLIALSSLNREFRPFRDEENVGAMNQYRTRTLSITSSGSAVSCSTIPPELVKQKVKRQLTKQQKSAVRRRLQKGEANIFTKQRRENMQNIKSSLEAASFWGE
Summary of the method: as §1

[18] = biological target: T18, MRCKB (Homo sapiens, UniProt Q9Y5S2); details: read-out: % Retention on Solid Support
T18 construct: purchased DiscoveRx KINOMEscan
T18 sequence (Q9Y5S2 whole entry): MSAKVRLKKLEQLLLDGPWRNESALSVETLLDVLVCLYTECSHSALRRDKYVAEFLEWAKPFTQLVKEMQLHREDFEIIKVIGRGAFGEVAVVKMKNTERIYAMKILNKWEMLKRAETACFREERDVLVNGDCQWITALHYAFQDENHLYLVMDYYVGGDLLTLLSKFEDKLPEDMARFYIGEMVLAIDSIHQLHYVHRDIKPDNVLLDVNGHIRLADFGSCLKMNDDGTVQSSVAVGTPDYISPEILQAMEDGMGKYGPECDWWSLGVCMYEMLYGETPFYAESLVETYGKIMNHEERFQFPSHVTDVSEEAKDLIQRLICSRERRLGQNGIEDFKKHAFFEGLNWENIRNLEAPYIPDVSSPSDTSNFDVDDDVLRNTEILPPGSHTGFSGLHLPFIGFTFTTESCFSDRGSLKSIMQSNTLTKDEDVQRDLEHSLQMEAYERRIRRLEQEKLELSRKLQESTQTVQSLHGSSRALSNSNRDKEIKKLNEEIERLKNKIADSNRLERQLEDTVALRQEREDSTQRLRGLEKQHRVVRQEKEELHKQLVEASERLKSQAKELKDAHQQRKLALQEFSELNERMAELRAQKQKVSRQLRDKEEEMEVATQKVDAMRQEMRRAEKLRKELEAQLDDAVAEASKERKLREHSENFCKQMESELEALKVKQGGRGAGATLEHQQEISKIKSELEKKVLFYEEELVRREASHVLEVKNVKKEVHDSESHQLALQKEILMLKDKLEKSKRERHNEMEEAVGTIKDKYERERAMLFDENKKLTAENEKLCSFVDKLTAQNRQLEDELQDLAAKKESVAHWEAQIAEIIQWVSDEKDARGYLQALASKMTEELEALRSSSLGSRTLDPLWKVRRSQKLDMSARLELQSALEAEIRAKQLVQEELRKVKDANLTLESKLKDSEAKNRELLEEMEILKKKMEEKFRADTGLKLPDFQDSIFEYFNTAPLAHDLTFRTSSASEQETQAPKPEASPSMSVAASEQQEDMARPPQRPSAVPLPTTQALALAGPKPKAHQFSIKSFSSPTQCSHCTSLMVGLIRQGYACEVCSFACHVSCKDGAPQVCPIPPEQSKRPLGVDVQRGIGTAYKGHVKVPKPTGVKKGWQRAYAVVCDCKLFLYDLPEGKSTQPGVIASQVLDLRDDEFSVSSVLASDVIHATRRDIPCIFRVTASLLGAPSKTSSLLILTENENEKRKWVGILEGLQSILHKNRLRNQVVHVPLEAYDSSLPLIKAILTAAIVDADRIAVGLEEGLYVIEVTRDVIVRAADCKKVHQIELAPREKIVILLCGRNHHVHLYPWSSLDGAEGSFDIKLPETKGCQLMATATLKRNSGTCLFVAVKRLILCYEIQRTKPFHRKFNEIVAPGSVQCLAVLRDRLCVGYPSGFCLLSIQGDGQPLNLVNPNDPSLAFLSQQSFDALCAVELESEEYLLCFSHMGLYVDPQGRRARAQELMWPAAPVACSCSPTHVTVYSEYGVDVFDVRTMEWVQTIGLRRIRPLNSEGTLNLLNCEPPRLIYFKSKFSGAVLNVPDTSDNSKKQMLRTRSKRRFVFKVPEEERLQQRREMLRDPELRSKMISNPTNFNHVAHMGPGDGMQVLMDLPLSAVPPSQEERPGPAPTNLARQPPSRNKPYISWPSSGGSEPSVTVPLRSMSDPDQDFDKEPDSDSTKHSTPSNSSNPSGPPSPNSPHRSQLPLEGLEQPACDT
Summary of the method: as §1

[19] = biological target: T19, ADCK4 (Homo sapiens, UniProt Q96D53); details: read-out: % Retention on Solid Support
T19 construct: purchased DiscoveRx KINOMEscan
Summary of the method: as §1

[20] = biological target: T20, PCTK2 (Homo sapiens, UniProt Q00537); details: read-out: % Retention on Solid Support
T20 construct: purchased DiscoveRx KINOMEscan
Summary of the method: as §1

[21] = biological target: T21, SRPK2 (Homo sapiens, UniProt P78362); details: read-out: % Retention on Solid Support
T21 construct: purchased DiscoveRx KINOMEscan
Summary of the method: as §1

[22] = biological target: T22, MAPKAPK5 (Homo sapiens, UniProt Q8IW41); details: read-out: % Retention on Solid Support
T22 construct: purchased DiscoveRx KINOMEscan
T22 sequence (Q8IW41 1-473): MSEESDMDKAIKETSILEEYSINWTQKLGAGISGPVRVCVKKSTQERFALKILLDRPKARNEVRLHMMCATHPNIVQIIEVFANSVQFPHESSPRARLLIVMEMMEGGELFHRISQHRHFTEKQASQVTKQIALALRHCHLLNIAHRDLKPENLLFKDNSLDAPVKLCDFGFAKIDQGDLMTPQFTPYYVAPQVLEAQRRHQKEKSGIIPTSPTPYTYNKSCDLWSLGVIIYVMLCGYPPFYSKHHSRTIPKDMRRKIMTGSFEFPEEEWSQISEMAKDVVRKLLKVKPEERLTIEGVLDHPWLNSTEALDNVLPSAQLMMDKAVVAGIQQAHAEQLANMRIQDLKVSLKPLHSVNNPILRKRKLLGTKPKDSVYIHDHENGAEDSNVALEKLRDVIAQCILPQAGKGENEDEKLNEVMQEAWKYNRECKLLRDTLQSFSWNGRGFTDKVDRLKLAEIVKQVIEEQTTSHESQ
Summary of the method: as §1

[23] = biological target: T23, ERK2 (Homo sapiens, UniProt P28482); details: read-out: % Retention on Solid Support
T23 construct: purchased DiscoveRx KINOMEscan
Summary of the method: as §1

[24] = biological target: T24, FGR (Homo sapiens, UniProt P09769); details: read-out: % Retention on Solid Support
T24 construct: purchased DiscoveRx KINOMEscan
T24 sequence (P09769 whole entry): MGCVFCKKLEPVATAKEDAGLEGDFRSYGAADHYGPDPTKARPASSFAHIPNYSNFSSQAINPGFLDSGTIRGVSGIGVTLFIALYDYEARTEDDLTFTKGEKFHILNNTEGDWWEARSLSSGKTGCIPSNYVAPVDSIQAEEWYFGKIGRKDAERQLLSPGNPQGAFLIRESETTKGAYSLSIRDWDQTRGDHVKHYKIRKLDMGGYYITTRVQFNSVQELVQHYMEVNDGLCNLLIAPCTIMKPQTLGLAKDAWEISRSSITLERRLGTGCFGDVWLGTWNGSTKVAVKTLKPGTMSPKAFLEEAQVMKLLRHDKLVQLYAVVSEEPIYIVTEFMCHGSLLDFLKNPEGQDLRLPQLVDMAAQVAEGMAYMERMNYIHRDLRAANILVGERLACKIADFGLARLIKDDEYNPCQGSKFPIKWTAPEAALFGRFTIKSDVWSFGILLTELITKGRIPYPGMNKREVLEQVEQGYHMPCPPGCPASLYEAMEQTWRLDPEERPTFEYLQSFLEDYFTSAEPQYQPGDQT
Summary of the method: as §1

T1 sequence (P54764 20-986): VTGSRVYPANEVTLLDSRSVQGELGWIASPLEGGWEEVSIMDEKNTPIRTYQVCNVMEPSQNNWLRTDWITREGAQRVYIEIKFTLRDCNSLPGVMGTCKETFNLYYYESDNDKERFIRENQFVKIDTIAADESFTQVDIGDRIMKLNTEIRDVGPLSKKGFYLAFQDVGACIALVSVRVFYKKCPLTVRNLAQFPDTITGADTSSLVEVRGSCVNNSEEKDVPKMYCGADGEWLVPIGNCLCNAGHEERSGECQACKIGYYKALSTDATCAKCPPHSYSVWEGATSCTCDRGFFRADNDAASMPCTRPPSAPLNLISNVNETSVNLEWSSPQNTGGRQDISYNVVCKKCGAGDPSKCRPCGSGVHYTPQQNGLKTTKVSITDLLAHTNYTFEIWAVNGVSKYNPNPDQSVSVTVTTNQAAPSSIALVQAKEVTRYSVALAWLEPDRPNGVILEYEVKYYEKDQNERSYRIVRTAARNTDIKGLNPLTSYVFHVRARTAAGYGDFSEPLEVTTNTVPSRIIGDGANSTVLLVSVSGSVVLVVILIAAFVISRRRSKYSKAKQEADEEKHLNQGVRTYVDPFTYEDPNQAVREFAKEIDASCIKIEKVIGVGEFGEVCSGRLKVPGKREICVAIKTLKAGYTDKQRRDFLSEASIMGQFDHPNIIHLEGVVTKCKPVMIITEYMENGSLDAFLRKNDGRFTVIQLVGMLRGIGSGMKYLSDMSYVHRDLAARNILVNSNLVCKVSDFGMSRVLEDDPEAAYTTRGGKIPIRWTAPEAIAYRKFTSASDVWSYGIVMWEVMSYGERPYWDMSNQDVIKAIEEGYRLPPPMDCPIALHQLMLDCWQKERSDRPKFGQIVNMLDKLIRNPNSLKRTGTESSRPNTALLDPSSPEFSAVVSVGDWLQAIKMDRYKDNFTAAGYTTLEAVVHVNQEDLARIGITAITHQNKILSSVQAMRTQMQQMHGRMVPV

N[C@H]1CC[C@H](Nc2cc(-c3cccc(NCc4cccc(F)c4)n3)c(Cl)cn2)CC1 [i-CDK9, N2′-(trans-4-aminocyclohexyl)-5′-chloro-N6-(3-fluorobenzyl)-2,4′-bipyridine-2′,6-diamine]
remaining binding at 1 µM ([1]; 1 µM i-CDK9): 100% | remaining binding at 10 µM ([1]; 10 µM i-CDK9): 89% | remaining binding at 1 µM ([2]; 1 µM i-CDK9): 23% | remaining binding at 10 µM ([2]; 10 µM i-CDK9): 100% | remaining binding at 1 µM ([3]; 1 µM i-CDK9): 93% | remaining binding at 10 µM ([3]; 10 µM i-CDK9): 84% | remaining binding at 1 µM ([4]; 1 µM i-CDK9): 100% | remaining binding at 10 µM ([4]; 10 µM i-CDK9): 88% | remaining binding at 1 µM ([5]; 1 µM i-CDK9): 70% | remaining binding at 10 µM ([5]; 10 µM i-CDK9): 100% | remaining binding at 1 µM ([6]; 1 µM i-CDK9): 100% | remaining binding at 10 µM ([6]; 10 µM i-CDK9): 100% | remaining binding at 1 µM ([7]; 1 µM i-CDK9): 100% | remaining binding at 10 µM ([7]; 10 µM i-CDK9): 57% | remaining binding at 1 µM ([8]; 1 µM i-CDK9): 92% | remaining binding at 10 µM ([8]; 10 µM i-CDK9): 68% | remaining binding at 1 µM ([9]; 1 µM i-CDK9): 100% | remaining binding at 10 µM ([9]; 10 µM i-CDK9): 88% | % Retention on Solid Support ([10]; 1 µM i-CDK9): 44% | % Retention on Solid Support ([10]; 10 µM i-CDK9): 100% | remaining binding at 1 µM ([11]; 1 µM i-CDK9): 100% | remaining binding at 10 µM ([11]; 10 µM i-CDK9): 100% | remaining binding at 1 µM ([12]; 1 µM i-CDK9): 100% | remaining binding at 10 µM ([12]; 10 µM i-CDK9): 92% | remaining binding at 1 µM ([13]; 1 µM i-CDK9): 45% | remaining binding at 10 µM ([13]; 10 µM i-CDK9): 97% | % Retention on Solid Support ([14]; 1 µM i-CDK9): 100% | % Retention on Solid Support ([14]; 10 µM i-CDK9): 100% | remaining binding at 1 µM ([15]; 1 µM i-CDK9): 100% | remaining binding at 10 µM ([15]; 10 µM i-CDK9): 100% | % Retention on Solid Support ([16]; 1 µM i-CDK9): 85% | % Retention on Solid Support ([16]; 10 µM i-CDK9): 70% | remaining binding at 1 µM ([17]; 1 µM i-CDK9): 100% | remaining binding at 10 µM ([17]; 10 µM i-CDK9): 32% | remaining binding at 1 µM ([18]; 1 µM i-CDK9): 95% | remaining binding at 10 µM ([18]; 10 µM i-CDK9): 100% | remaining binding at 1 µM ([19]; 1 µM i-CDK9): 99% | remaining binding at 10 µM ([19]; 10 µM i-CDK9): 48% | remaining binding at 1 µM ([20]; 1 µM i-CDK9): 14% | remaining binding at 10 µM ([20]; 10 µM i-CDK9): 0.05% | remaining binding at 1 µM ([21]; 1 µM i-CDK9): 57% | remaining binding at 10 µM ([21]; 10 µM i-CDK9): 100% | remaining binding at 1 µM ([22]; 1 µM i-CDK9): 100% | remaining binding at 10 µM ([22]; 10 µM i-CDK9): 94% | remaining binding at 1 µM ([23]; 1 µM i-CDK9): 100% | remaining binding at 10 µM ([23]; 10 µM i-CDK9): 100% | remaining binding at 1 µM ([24]; 1 µM i-CDK9): 100% | remaining binding at 10 µM ([24]; 10 µM i-CDK9): 98%
